From article PMC11241262, “Unravelling the Antifibrinolytic Mechanism of Action of the 1,2,3-Triazole Derivatives” (International Journal of Molecular Sciences, 2024)
Converted amounts (≈) assume the structure as drawn.

Columns and labels:
plasminogen = molecular target: T1, plasminogen (Homo sapiens, UniProt P00747); experiment: Plasminogen activation assay (conversion of plasminogen into plasmin by tPA in the absence of fibrin); format: biochemical
T1 construct: purchased abcam
Experimental: The conversion rate of plasminogen to plasmin was assessed using the Tissue-Type Plasminogen Activator Activity Assay Kit (abcam), following the manufacturer’s instructions. The assay measures the ability of tPA to activate plasminogen to plasmin in the presence of the tested compounds using a chromogenic substrate.
A solution of plasminogen and plasmin substrate was mixed with a previously prepared solution of the studied compound and tPA in Tris HCl buffer in a 96-well plate. The final concentration of tPA in each well was 6.8 µg/mL, in a final volume of 100 µL. Absorbance was measured on a microplate reader at a wavelength of 405 nm every minute at 37 °C for 2 h or until the system reached saturation. The absorbance slope of each sample was determined using Equation (3). The Relative Plasminogen Activation (%) for each condition was calculated with Equation (4), using a control without a compound (enzyme control). (4) Relative Plasminogen Activation (%)=SlopeCompound−SlopeControl/SlopeControl×100
Values were fitted to a linear model using MATLAB R2023a (The Math Works Inc., Natick, MA, USA). Concentrations at which each compound was able to increase plasminogen’s conversion by 50% in comparison to the enzyme control were extracted and compared for the three molecules.

[1] = Pharmacokinetic study in Wistar rats; format: in vivo; conditions: for Mortality: PK2 2.5 mg/kg iv, 9 rats; for AUC / Cmax / Tmax / Vd / clearance / half-life: iv
Experimental: A pharmacokinetic study was performed for compound 5 in Wistar rats and Beagle dogs. For rats, a total of 35 male and 35 female rats were used for the study. At initiation of the dosing, rats were 9 to 10 weeks old and the body weight variation among rats was within ±20% of the mean body weight for each sex. […] Food and filtered water were provided ad libitum. During randomization, 30 male and 30 female rats were selected for the study and randomly allocated to the 4 different groups. The remaining 5 male and 5 female rats were returned to the animal facility. Rats were observed twice daily for morbidity, mortality, and clinical signs during the whole study period. Rats were euthanized after last blood collection time point by carbon dioxide asphyxiation. Sterile water served as a vehicle to dissolve compound 5 and the resulting formulations were administered right after preparation. Dose formulations were administered to rats via an intravenous bolus injection through the tail vein, using a sterile needle attached to a graduated syringe. A fixed volume of 5 mL/kg body weight was administered. Individual doses were adjusted based on the most recent recorded body weight of each rat. Four dose levels were selected: vehicle control (PK1), 2.5 mg/kg (PK2), 5 mg/kg (PK3), and 10 mg/kg (PK4).
Pharmacokinetic assessment of compound 5 was conducted on the day of dosing at multiple time points: 0 h (pre-dose), 5 min, 15 min, 0.5 h, 1 h, 2 h, 4 h, 6 h, 10 h, and 24 h post-dosing for PK2, PK3, and PK4 rats. At each time point, samples were only obtained from a subset of 3 rats. For the PK1 group, samples were collected at 0 h and at 24 h post-dosing. Blood samples (400 µL) were collected into heparin sodium tubes from the retro-orbital plexus under very light isoflurane anesthesia. Samples were inverted 4 to 5 times and placed on ice and then centrifuged at 3500 rpm for 15 min at 8 °C for plasma extraction. Plasma was transferred to Eppendorf tubes and stored at −70 ± 10 °C until assayed. The concentration of compound 5 was analyzed in plasma using High-Performance Liquid Chromatography. […] The mobile phase consisted of acetonitrile (A) and 2 mM ammonium Formate in Mili-Q water (B) with an isocratic elution mode. Pharmacokinetic analysis of the concentration of compound 5 in plasma was performed using the non-compartmental model of the WinNonlin® software version 8.1 at JRF. The group mean values of plasma concentration were analyzed to obtain different pharmacokinetics parameters, including Cmax (maximum peak concentration), Tmax (time of maximum peak concentration), AUC (area under the concentration–time curve, Cl (clearance), Vd (volume of distribution), Kel (elimination rate constant), and T1/2 (terminal half-life).

[2] = Maximum solubility in plasmin assay; format: physicochemical; conditions: Tris HCl buffer (plasmin activity assay solution), pH 7.5
[3] = female, Wistar, rat, in vivo, 2.5 mg/kg
[4] = female, Wistar, rat, in vivo, 5 mg/kg
[5] = female, Wistar, rat, in vivo, 10 mg/kg
[6] = male, Wistar, rat, in vivo, 2.5 mg/kg
[7] = male, Wistar, rat, in vivo, 5 mg/kg
[8] = male, Wistar, rat, in vivo, 10 mg/kg

T1 sequence (P00747 20-810 limits assumed): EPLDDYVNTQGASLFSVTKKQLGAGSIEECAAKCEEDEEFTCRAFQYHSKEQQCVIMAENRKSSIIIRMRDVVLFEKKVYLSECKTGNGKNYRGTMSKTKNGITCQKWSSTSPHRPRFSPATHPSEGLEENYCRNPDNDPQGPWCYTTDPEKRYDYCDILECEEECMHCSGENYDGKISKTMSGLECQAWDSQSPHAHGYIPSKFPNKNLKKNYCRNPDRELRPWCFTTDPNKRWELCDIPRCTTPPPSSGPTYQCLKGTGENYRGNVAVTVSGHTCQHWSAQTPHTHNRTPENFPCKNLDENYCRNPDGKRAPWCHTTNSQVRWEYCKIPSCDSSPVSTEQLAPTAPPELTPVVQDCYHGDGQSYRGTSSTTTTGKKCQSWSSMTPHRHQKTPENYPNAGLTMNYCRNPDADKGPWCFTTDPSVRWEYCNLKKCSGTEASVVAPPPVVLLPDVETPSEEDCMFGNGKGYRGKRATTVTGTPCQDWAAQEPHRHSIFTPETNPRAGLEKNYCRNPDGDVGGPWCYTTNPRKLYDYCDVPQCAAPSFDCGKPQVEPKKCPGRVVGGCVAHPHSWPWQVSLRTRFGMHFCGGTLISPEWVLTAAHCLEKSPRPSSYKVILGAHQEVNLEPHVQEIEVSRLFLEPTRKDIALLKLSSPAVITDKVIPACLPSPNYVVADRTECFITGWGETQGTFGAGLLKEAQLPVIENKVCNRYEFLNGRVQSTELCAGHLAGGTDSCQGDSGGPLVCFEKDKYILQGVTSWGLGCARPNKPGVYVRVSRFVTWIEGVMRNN

Compound: O=c1[nH]nc(-c2cn(C3CCNCC3)nn2)o1 [compound 5]
- potency relative to TXA in catalyzing plasminogen's activation by tPA (plasminogen; from concentration enhancing tPA's activity by 50%): more than 50 times
- concentration at which compound increased tPA's activity by 50% (plasminogen; plasminogen-tPA isolated system, absence of fibrin): 4.03 µM
- Mortality ([1]; female): 0 number of rats
- Mortality ([1]; male): 0 number of rats
- elimination halftime ([1]; both, Wistar (rat), Beagle (dog), rat, in vivo): 2 to 3 h
- AUC [1, 3]: 3630 ng·h/mL
- Cmax [1, 3]: 8660 ng/mL
- Tmax [1, 3]: 4.8 min
- Vd [1, 3]: 1.91 L/kg
- clearance [1, 3]: 11.5 mL/min/kg
- half-life [1, 3]: 115 min
- AUC [1, 4]: 7040 ng·h/mL
- Tmax [1, 4]: 4.8 min
- Vd [1, 4]: 2.03 L/kg
- clearance [1, 4]: 11.8 mL/min/kg
- half-life [1, 4]: 119 min
- AUC [1, 5]: 13600 ng·h/mL
- Tmax [1, 5]: 4.8 min
- Vd [1, 5]: 2.37 L/kg
- clearance [1, 5]: 12.2 mL/min/kg
- half-life [1, 5]: 134 min
- AUC [1, 6]: 3430 ng·h/mL
- Cmax [1, 6]: 8280 ng/mL
- Tmax [1, 6]: 4.8 min
- Vd [1, 6]: 2.52 L/kg
- clearance [1, 6]: 12.2 mL/min/kg
- half-life [1, 6]: 145 min
- AUC [1, 7]: 6530 ng·h/mL
- Cmax [1, 7]: 15100 ng/mL
- Tmax [1, 7]: 4.8 min
- Vd [1, 7]: 6.01 L/kg
- clearance [1, 7]: 12.7 mL/min/kg
- half-life [1, 7]: 327 min
- AUC [1, 8]: 12200 ng·h/mL
- Cmax [1, 8]: 26300 ng/mL
- Tmax [1, 8]: 4.8 min
- Vd [1, 8]: 6.65 L/kg
- clearance [1, 8]: 13.7 mL/min/kg
- half-life [1, 8]: 337 min
- Cmax ([1]; rat, in vivo, 5 mg/kg): 16,634
- Cmax ([1]; rat, in vivo, 10 mg/kg): 30,839
- solubility [2]: 20 mM (≈ 4720 µg/mL)
